The results in this text go back to PubChem BioAssay AID1963845 (Molecular Pharmacology Branch, DTP, NCI, 2024).

Molecules are shown by their SMILES.
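Note: luminescence signal used as surrogate measure of viable cells; spheroids exposed to compounds for seven days before readout; 100% = DMSO vehicle control viability as luminescence relative to vehicle.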

One test has as its system 429239-143-T-J1-PDC complex spheroid viability. Description: Anticancer human tumor 429239-143-T-J1-PDC patient-derived small cell lung carcinoma cell line growth inhibition [POLQ]. To be noted: second compound 0.316 µM; first compound 1 µM; stronger effect = lower value. The essentials:
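Three-cell-type spheroids modelling solid tumor plus stroma served as the readout system; POL inhibitors were tested individually and in combination, concentration ranges set by clinical Cmax where known.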
Regarding `C=CC(=O)N1CCN(c2nc(=O)n(-c3c(C)ccnc3C(C)C)c3nc(-c4c(O)cccc4F)c(F)cc23)C(C)C1` (stereo unspecified) + Nc1ccc(C#CCN(C(=O)Cc2ncc(C(F)(F)F)cc2C(F)(F)F)c2ccc(F)cc2)nn1, the viability, T/C was 103%.

As to `CC(C)n1c(=O)n(C)c2cnc3cc(F)c(-c4ccc(OCCCN5CCCCC5)nc4)cc3c21` + Nc1ccc(C#CCN(C(=O)Cc2ncc(C(F)(F)F)cc2C(F)(F)F)c2ccc(F)cc2)nn1, the viability, T/C is 104%.

Take `COc1ccc([C@@H](O)c2cc(-c3ncnc4cc(N5CCOCC5)ccc34)c(F)cc2Cl)nn1` + Nc1ccc(C#CCN(C(=O)Cc2ncc(C(F)(F)F)cc2C(F)(F)F)c2ccc(F)cc2)nn1: the viability, T/C was 112%.

Still in this test, the particulars now being: second compound 0.316 µM; first compound 3.16 µM; stronger effect = lower value.
As for `C=CC(=O)N1CCN(c2nc(=O)n(-c3c(C)ccnc3C(C)C)c3nc(-c4c(O)cccc4F)c(F)cc23)C(C)C1` (stereo unspecified) + Nc1ccc(C#CCN(C(=O)Cc2ncc(C(F)(F)F)cc2C(F)(F)F)c2ccc(F)cc2)nn1, the viability, T/C is 109%.

In the case of `CC(C)n1c(=O)n(C)c2cnc3cc(F)c(-c4ccc(OCCCN5CCCCC5)nc4)cc3c21` + Nc1ccc(C#CCN(C(=O)Cc2ncc(C(F)(F)F)cc2C(F)(F)F)c2ccc(F)cc2)nn1, the viability, T/C is 106%.

For `COc1ccc([C@@H](O)c2cc(-c3ncnc4cc(N5CCOCC5)ccc34)c(F)cc2Cl)nn1` + Nc1ccc(C#CCN(C(=O)Cc2ncc(C(F)(F)F)cc2C(F)(F)F)c2ccc(F)cc2)nn1, the viability, T/C was 88.8%.

Staying with this test, now noted: second compound 0.316 µM; first compound 10 µM; stronger effect = lower value.
Consider `C=CC(=O)N1CCN(c2nc(=O)n(-c3c(C)ccnc3C(C)C)c3nc(-c4c(O)cccc4F)c(F)cc23)C(C)C1` (stereo unspecified) + Nc1ccc(C#CCN(C(=O)Cc2ncc(C(F)(F)F)cc2C(F)(F)F)c2ccc(F)cc2)nn1, for which the viability, T/C is 94.1%.

For the compound `CC(C)n1c(=O)n(C)c2cnc3cc(F)c(-c4ccc(OCCCN5CCCCC5)nc4)cc3c21` + Nc1ccc(C#CCN(C(=O)Cc2ncc(C(F)(F)F)cc2C(F)(F)F)c2ccc(F)cc2)nn1, the viability, T/C is 91.1%.

For the compound `COc1ccc([C@@H](O)c2cc(-c3ncnc4cc(N5CCOCC5)ccc34)c(F)cc2Cl)nn1` + Nc1ccc(C#CCN(C(=O)Cc2ncc(C(F)(F)F)cc2C(F)(F)F)c2ccc(F)cc2)nn1, the viability, T/C was 45.5%.

The test is the same for the next values; noted with them: second compound 1 µM; first compound 0.0316 µM; stronger effect = lower value.
For the compound `C=CC(=O)N1CCN(c2nc(=O)n(-c3c(C)ccnc3C(C)C)c3nc(-c4c(O)cccc4F)c(F)cc23)C(C)C1` (stereo unspecified) + Nc1ccc(C#CCN(C(=O)Cc2ncc(C(F)(F)F)cc2C(F)(F)F)c2ccc(F)cc2)nn1, the viability, T/C was 98.9%.

For the compound `CC(C)n1c(=O)n(C)c2cnc3cc(F)c(-c4ccc(OCCCN5CCCCC5)nc4)cc3c21` + Nc1ccc(C#CCN(C(=O)Cc2ncc(C(F)(F)F)cc2C(F)(F)F)c2ccc(F)cc2)nn1, the viability, T/C was 99.1%.

For `COc1ccc([C@@H](O)c2cc(-c3ncnc4cc(N5CCOCC5)ccc34)c(F)cc2Cl)nn1` + Nc1ccc(C#CCN(C(=O)Cc2ncc(C(F)(F)F)cc2C(F)(F)F)c2ccc(F)cc2)nn1, the viability, T/C is 97.8%.

Still in this test, the particulars now being: second compound 1 µM; first compound 0.1 µM; stronger effect = lower value.
As to `C=CC(=O)N1CCN(c2nc(=O)n(-c3c(C)ccnc3C(C)C)c3nc(-c4c(O)cccc4F)c(F)cc23)C(C)C1` (stereo unspecified) + Nc1ccc(C#CCN(C(=O)Cc2ncc(C(F)(F)F)cc2C(F)(F)F)c2ccc(F)cc2)nn1, the viability, T/C was 103%.

With `CC(C)n1c(=O)n(C)c2cnc3cc(F)c(-c4ccc(OCCCN5CCCCC5)nc4)cc3c21` + Nc1ccc(C#CCN(C(=O)Cc2ncc(C(F)(F)F)cc2C(F)(F)F)c2ccc(F)cc2)nn1, the viability, T/C was 101%.

As to `COc1ccc([C@@H](O)c2cc(-c3ncnc4cc(N5CCOCC5)ccc34)c(F)cc2Cl)nn1` + Nc1ccc(C#CCN(C(=O)Cc2ncc(C(F)(F)F)cc2C(F)(F)F)c2ccc(F)cc2)nn1, the viability, T/C is 86.6%.

Still in this test, the particulars now being: second compound 1 µM; first compound 0.316 µM; stronger effect = lower value.
For the compound `C=CC(=O)N1CCN(c2nc(=O)n(-c3c(C)ccnc3C(C)C)c3nc(-c4c(O)cccc4F)c(F)cc23)C(C)C1` (stereo unspecified) + Nc1ccc(C#CCN(C(=O)Cc2ncc(C(F)(F)F)cc2C(F)(F)F)c2ccc(F)cc2)nn1, the viability, T/C was 99.3%.

Turning to `CC(C)n1c(=O)n(C)c2cnc3cc(F)c(-c4ccc(OCCCN5CCCCC5)nc4)cc3c21` + Nc1ccc(C#CCN(C(=O)Cc2ncc(C(F)(F)F)cc2C(F)(F)F)c2ccc(F)cc2)nn1, the viability, T/C was 105%.

Turning to `COc1ccc([C@@H](O)c2cc(-c3ncnc4cc(N5CCOCC5)ccc34)c(F)cc2Cl)nn1` + Nc1ccc(C#CCN(C(=O)Cc2ncc(C(F)(F)F)cc2C(F)(F)F)c2ccc(F)cc2)nn1, the viability, T/C was 97%.

The test is the same for the next values; noted with them: second compound 1 µM; first compound 1 µM; stronger effect = lower value.
With `C=CC(=O)N1CCN(c2nc(=O)n(-c3c(C)ccnc3C(C)C)c3nc(-c4c(O)cccc4F)c(F)cc23)C(C)C1` (stereo unspecified) + Nc1ccc(C#CCN(C(=O)Cc2ncc(C(F)(F)F)cc2C(F)(F)F)c2ccc(F)cc2)nn1, the viability, T/C is 112%.

In the case of `CC(C)n1c(=O)n(C)c2cnc3cc(F)c(-c4ccc(OCCCN5CCCCC5)nc4)cc3c21` + Nc1ccc(C#CCN(C(=O)Cc2ncc(C(F)(F)F)cc2C(F)(F)F)c2ccc(F)cc2)nn1, the viability, T/C is 102%.

For the compound `COc1ccc([C@@H](O)c2cc(-c3ncnc4cc(N5CCOCC5)ccc34)c(F)cc2Cl)nn1` + Nc1ccc(C#CCN(C(=O)Cc2ncc(C(F)(F)F)cc2C(F)(F)F)c2ccc(F)cc2)nn1, the viability, T/C is 100%.

Still in this test, the particulars now being: second compound 1 µM; first compound 3.16 µM; stronger effect = lower value.
With `C=CC(=O)N1CCN(c2nc(=O)n(-c3c(C)ccnc3C(C)C)c3nc(-c4c(O)cccc4F)c(F)cc23)C(C)C1` (stereo unspecified) + Nc1ccc(C#CCN(C(=O)Cc2ncc(C(F)(F)F)cc2C(F)(F)F)c2ccc(F)cc2)nn1, the viability, T/C was 98.4%.

For `CC(C)n1c(=O)n(C)c2cnc3cc(F)c(-c4ccc(OCCCN5CCCCC5)nc4)cc3c21` + Nc1ccc(C#CCN(C(=O)Cc2ncc(C(F)(F)F)cc2C(F)(F)F)c2ccc(F)cc2)nn1, the viability, T/C is 105%.

`COc1ccc([C@@H](O)c2cc(-c3ncnc4cc(N5CCOCC5)ccc34)c(F)cc2Cl)nn1` + Nc1ccc(C#CCN(C(=O)Cc2ncc(C(F)(F)F)cc2C(F)(F)F)c2ccc(F)cc2)nn1: the viability, T/C was 84%.

Still in this test, the particulars now being: second compound 1 µM; first compound 10 µM; stronger effect = lower value.
As to `C=CC(=O)N1CCN(c2nc(=O)n(-c3c(C)ccnc3C(C)C)c3nc(-c4c(O)cccc4F)c(F)cc23)C(C)C1` (stereo unspecified) + Nc1ccc(C#CCN(C(=O)Cc2ncc(C(F)(F)F)cc2C(F)(F)F)c2ccc(F)cc2)nn1, the viability, T/C was 91.8%.

With `CC(C)n1c(=O)n(C)c2cnc3cc(F)c(-c4ccc(OCCCN5CCCCC5)nc4)cc3c21` + Nc1ccc(C#CCN(C(=O)Cc2ncc(C(F)(F)F)cc2C(F)(F)F)c2ccc(F)cc2)nn1, the viability, T/C is 93%.

Consider `COc1ccc([C@@H](O)c2cc(-c3ncnc4cc(N5CCOCC5)ccc34)c(F)cc2Cl)nn1` + Nc1ccc(C#CCN(C(=O)Cc2ncc(C(F)(F)F)cc2C(F)(F)F)c2ccc(F)cc2)nn1, for which the viability, T/C was 55.8%.

Staying with this test, now noted: second compound 3.16 µM; first compound 0.0316 µM; stronger effect = lower value.
In the case of `C=CC(=O)N1CCN(c2nc(=O)n(-c3c(C)ccnc3C(C)C)c3nc(-c4c(O)cccc4F)c(F)cc23)C(C)C1` (stereo unspecified) + Nc1ccc(C#CCN(C(=O)Cc2ncc(C(F)(F)F)cc2C(F)(F)F)c2ccc(F)cc2)nn1, the viability, T/C is 107%.

Consider `CC(C)n1c(=O)n(C)c2cnc3cc(F)c(-c4ccc(OCCCN5CCCCC5)nc4)cc3c21` + Nc1ccc(C#CCN(C(=O)Cc2ncc(C(F)(F)F)cc2C(F)(F)F)c2ccc(F)cc2)nn1, for which the viability, T/C is 97.1%.

`COc1ccc([C@@H](O)c2cc(-c3ncnc4cc(N5CCOCC5)ccc34)c(F)cc2Cl)nn1` + Nc1ccc(C#CCN(C(=O)Cc2ncc(C(F)(F)F)cc2C(F)(F)F)c2ccc(F)cc2)nn1: the viability, T/C was 106%.

Staying with this test, now noted: second compound 3.16 µM; first compound 0.1 µM; stronger effect = lower value.
Turning to `C=CC(=O)N1CCN(c2nc(=O)n(-c3c(C)ccnc3C(C)C)c3nc(-c4c(O)cccc4F)c(F)cc23)C(C)C1` (stereo unspecified) + Nc1ccc(C#CCN(C(=O)Cc2ncc(C(F)(F)F)cc2C(F)(F)F)c2ccc(F)cc2)nn1, the viability, T/C is 105%.

Usually viability, T/C stands for the result in the treated group divided by that in the control group, in per cent.
